# Like-named read-outs stand apart in the source and are kept apart here. No end group written: not given here.
# B1: NB—Pd: HER2 nanobody-HRGDH fusion complexed with Pd after incubation with Pd(OAc)2 at molar ratio 1:1 (conjugate)
# VHH: QVQLQESGGGSVQAGGSLKLTCAASGYIFNSCGMGWYRQSPGRERELVSRISGDGDTWHKESVKGRFTISQDNVKKTLYLQMNSLKPEDTAVYFCAVCYNLETYWGQGTQVTVSSGGGGSHRGDHENLYFQSHHHHHH
# How the values were obtained:
# [1] = Catalytic screening of metallopeptides (ProRes to resorufin fluorescence); details: Pd-peptides 10 μM, ProRes 100 μM, PBS, 37° C., 24 h
# Description: Catalytic screening of metallopeptides. Metallopeptides, either mixed or as individual Pd-peptides (Pd-HRGDHC (SEQ ID NO: 6) or Pd-LLEYLKR (SEQ ID NO: 7) (10 μM) were incubated with Pd-labile off/on sensor O-propargyl-resorufin (ProRes)^2 (100 μM) in PBS (500 μL). The mixtures were shaken at 700 rpm and 37° C. in a Thermomixer and reactions were monitored after 24 h using a FLUOstar Omega multilabel reader (Ex/Em: 540/590 nm).
# [2] = Fluorogenic catalysis of ProRes in PBS versus serum (10% FBS in PBS); details: 37° C., 24 h
# Description: (a) Catalytic deprotection of the propargylated dye (ProRes, 100 μM) occurs in the presence of either Pd(OAc)2 (Pd, 1.4 μM), or in the presence of NB-HRGDH-Pd (NB—Pd, 1.4 μM). The catalysis was performed at physiological conditions (pH 7.4, 37° C.) in PBS or in serum (10% FBS in PBS). The fluorescence measurements were normalised against the value of fluorescence after catalysis in PBS (100%) and corrected by the fluorescence of the product, Resorufin, in PBS and serum, respectively. (b) Scheme representing the catalysis of ProRes by NB—Pd in the presence of serum and the catalytic deactivation of Pd(OAc)2 by serum.
# In solution. […] The mixtures were shaken at 700 rpm and 37° C. in a Thermomixer, and reactions were monitored after 24 h using a FLUOstar Omega multilabel reader (Ex/Em: 540/590 nm). […] The fluorescence measurements were normalised against the value of fluorescence after catalysis in PBS (100%) and corrected by the fluorescence of the product, Resorufin, in PBS and serum, respectively.
# Pd(OAc)2 and Pd-peptide (Pd-HRGDHC) were incubated with the previously described sensor (ProRes) in PBS or in 10% FBS—PBS at 37° C. in a Thermomixer, and reactions were monitored after 24 h using a multilabel reader. Fluorescence increment was observed after catalysis. […]
# SK-BR-3 cells [3] = experiment: Prodrug-into-drug conversion, extracellular, SK-BR-3; format: cell-based; details: for catalytic conversion of ProPTX into paclitaxel in cell culture: catalyst 1.4 μM + ProPTX 0.3 μM, SK-BR-3; for cell death: in combination with ProPTX 0.3 μM, SK-BR-3, 5 days, PrestoBlue
# Description: Error bars: LSD from n=2. Significance was determined by one-way analysis of variance (ANOVA): ^nsP>0.05, *P<0.05.
# Error bars: ±SD from n=3.
# Extracellular conversion. […] The cells treated with PTX and ProPTX at 0.3 μM were used as positive and negative controls, respectively. After 5d, PrestoBlue cell viability reagent (10% v/v) was added to each well and the plate was incubated for 90 min. […] Experiments were performed in triplicates.
# SK-BR-3 cells were seeded and incubated with a solution of Pd(OAc)2 or Pd-peptide (Pd-HRGDHC) in combination with either DMSO or ProPTX (0.3 μM). After 5 days, Presto blue cell viability reagent was added and fluorescence emission was detected using a multilabel plate reader.
# After 5d, Presto blue cell viability reagent was added to each well and fluorescence emission was detected using a multilabel fluorescence reader.
# SK-BR-3 cells [4] = details: read-out: EC50 (cell viability), SK-BR-3, day 5, PrestoBlue
# Description: Dose-response curves of Pd (Pd(OAc)2) and Pd-peptide (HRGDHC-Pd) at different concentrations (100-1 μM) in HER2+ breast cancer cell line SK-BR-3. Cell viability was measured on day 5 using PrestoBlue reagent. Error bars: ±SD from n=3.
# Cell viability was measured on day 5 using PrestoBlue reagent. Error bars: ±SD from n=3.
# Cells were seeded in a 96-well plate format (at 2,000 cells per well) and incubated for 24 h before treatment. […] Untreated cells were incubated with DMSO (0.1% v/v). After 5d of incubation, cell viability was determined as described above. All conditions were normalised to the untreated cells (100%) and curves fitted using GraphPad Prism using a sigmoidal variable slope curve. Experiments were performed in triplicates.
# Presto blue reagent was added to quantitatively measure viability by fluorescence detection and EC50 values were calculated by plotting dose-response curves.
# [5] = test system: SK-BR-3 breast cancer cells; experiment: Dose-response of paclitaxel versus paclitaxel prodrug in SK-BR-3 cells; format: cell-based; details: Homo sapiens, semilog dose-response
# Source text: This vast drop of anticancer activity highlights the essential role of the C2′-OH of PTX for binding its target.
# [6] = test system: HER2 negative cells MCF-7; experiment: Prodrug-into-drug conversion, intracellular (1 h incubation, wash), MCF-7; format: cell-based; details: NB—Pd 1 h, washed, then ProPTX 0.3 μM, 5 days
# Description: Cell viability was measured on day 5 using PrestoBlue reagent. Error bars: LSD from n=3. Significance was determined by one-way analysis of variance (ANOVA): ^nsP>0.05, *P<0.05, **P<0.01, ****P<0.0001.
# Intracellular conversion. SK-BR-3 and MCF-7 cells were seeded in a 96-well plate format (at 2,000 cells per well) and incubated for 24 h before treatment. Each well was then replaced with a solution of NB—Pd (20 μg/mL, 1.4 μM) in culture media and incubated for 1 h. Cells were then washed with PBS and fresh media containing either DMSO (0.1% v/v) or ProPTX (0.3 μM) was added. The cells treated with PTX and ProPTX at 0.3 μM were used as positive and negative controls, respectively. After 5d, PrestoBlue cell viability reagent (10% v/v) was added to each well and the plate was incubated for 90 min. Fluorescence emission was detected using a FLUOstar Omega multilabel reader (Ex/Em: 540/590 nm). Experiments were performed in triplicates.
# SK-BR-3 and MCF-7 cells (HER2 positive and negative respectively) were seeded and incubated with a solution of NB—Pd for 1 h. Cells were then washed with PBS and fresh media containing either DMSO or ProPTX (0.3 μM) was added. After 5 days, Presto blue cell viability reagent was added and fluorescence emission was detected. […] Results are to be found in FIG. 6.
Molecule,catalytic activity (conversion of ProRes into fluorescent resorufin) [1],catalytic conversion of ProPTX into paclitaxel in cell culture (SK-BR-3 cells [3]),cell death (SK-BR-3 cells [3]),also measured
LLEYLKR (also: Pd complex) [reference compound],does not show any catalytic activity,,,
HRGDHC-OH [Pd-peptide],show catalytic activity,converting the prodrug,> 40%,catalytic activity in serum relative to catalytic activity in PBS ([2]; 10% FBS-PBS vs PBS): at least 18%
"CC(=O)[O-].CC(=O)[O-].[Pd+2] [Pd(OAc)2, reference compound]",,Non-significant catalysis,,catalytic activity in serum ([2]; 10% FBS-PBS): lost its catalytic properties; EC50 (SK-BR-3 cells [4]): 23 µM; EC50 (SK-BR-3 cells [4]; listed as Pd): 39 µM
"CC(=O)O[C@H]1C(=O)[C@@]2(C)[C@H]([C@H](OC(=O)c3ccccc3)[C@]3(O)C[C@H](OC(=O)[C@H](O)[C@@H](NC(=O)c4ccccc4)c4ccccc4)C(C)=C1C3(C)C)[C@]1(OC(C)=O)CO[C@@H]1C[C@@H]2O [PTX, paclitaxel]",,,,EC50 [5]: 0.0018 µM
"C1=C\CC/C=C\CC/1.[Cl][Pd][Cl] [Pd(Cod)Cl2, reference compound]",,poor catalytic efficiency,,
B1,,,> 70%,effect on cell viability [6]: no effect

# From patent US20260124315A1, “CATALYST AUGMENTED TARGET SPECIFIC POLYPEPTIDE” (TECHNISCHE UNIVERSITAT BERLIN, priority 2022, published 2026)
